Results published in PubChem BioAssay AID2060504 (Molecular Pharmacology Branch, DTP, NCI, 2025).

Tested on: 636577-100-R-J1-PDC complex spheroid viability
Experiment: Anticancer human tumor 636577-100-R-J1-PDC patient-derived endometrial adenocarcinoma cell line growth inhibition [GQUAD]
Details: for IC50: curve of first compound; for viability, T/C: stronger effect = lower value
Method in brief: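 Tumor cells were grown as complex spheroids with HUVEC endothelial cells and mesenchymal stem cells as stroma. G-quadruplex stabilizers were combined with targeted agents over half-log dilutions from near the clinical Cmax, or from 10 microM.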

[1] = second compound 0.0316 µM, first compound 0.0316 µM
[2] = second compound 0.0316 µM, first compound 0.1 µM
[3] = second compound 0.0316 µM, first compound 0.316 µM
[4] = second compound 0.0316 µM, first compound 1 µM
[5] = second compound 0.0316 µM, first compound 3.16 µM
[6] = second compound 0.0316 µM, first compound 10 µM
[7] = second compound 0.1 µM, first compound 0.0316 µM
[8] = second compound 0.1 µM, first compound 0.1 µM
[9] = second compound 0.1 µM, first compound 0.316 µM
[10] = second compound 0.1 µM, first compound 1 µM
[11] = second compound 0.1 µM, first compound 3.16 µM
[12] = second compound 0.1 µM, first compound 10 µM
[13] = second compound 0.316 µM, first compound 0.0316 µM
[14] = second compound 0.316 µM, first compound 0.1 µM
[15] = second compound 0.316 µM, first compound 0.316 µM
[16] = second compound 0.316 µM, first compound 1 µM
[17] = second compound 0.316 µM, first compound 3.16 µM
[18] = second compound 0.316 µM, first compound 10 µM
[19] = second compound 1 µM, first compound 0.0316 µM
[20] = second compound 1 µM, first compound 0.1 µM
[21] = second compound 1 µM, first compound 0.316 µM
[22] = second compound 1 µM, first compound 1 µM
[23] = second compound 1 µM, first compound 3.16 µM
[24] = second compound 1 µM, first compound 10 µM
[25] = second compound 3.16 µM, first compound 0.0316 µM
[26] = second compound 3.16 µM, first compound 0.1 µM
[27] = second compound 3.16 µM, first compound 0.316 µM
[28] = second compound 3.16 µM, first compound 1 µM
[29] = second compound 3.16 µM, first compound 3.16 µM
[30] = second compound 3.16 µM, first compound 10 µM
[31] = second compound 10 µM, first compound 0.0316 µM
[32] = second compound 10 µM, first compound 0.1 µM
[33] = second compound 10 µM, first compound 0.316 µM
[34] = second compound 10 µM, first compound 1 µM
[35] = second compound 10 µM, first compound 3.16 µM
[36] = second compound 10 µM, first compound 10 µM
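Note: viability read after seven days of drug exposure.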
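Throughout, for viability, T/C: luminescence signal used as a proxy for viable cells; 100% = DMSO vehicle control wells.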

CC(=O)O[C@H]1C(=O)[C@@]2(C)[C@H]([C@H](OC(=O)c3ccccc3)[C@]3(O)C[C@H](OC(=O)[C@H](O)[C@@H](NC(=O)c4ccccc4)c4ccccc4)C(C)=C1C3(C)C)[C@]1(OC(C)=O)CO[C@@H]1C[C@@H]2O + Cc1cnc(CNC(=O)c2c(=O)c3ccc(N4CCCN(C)CC4)nc3n3c2sc2ccccc23)cn1
IC50 (second compound 0.0316 µM): < 31.6 nM
IC50 (second compound 0.1 µM): < 31.6 nM
IC50 (second compound 0.316 µM): < 31.6 nM
IC50 (second compound 1 µM): < 31.6 nM
IC50 (second compound 3.16 µM): < 31.6 nM
IC50 (second compound 10 µM): < 31.6 nM
viability, T/C [1]: 22.4%
viability, T/C [2]: 13.4%
viability, T/C [3]: 13%
viability, T/C [4]: 10.6%
viability, T/C [5]: 9.54%
viability, T/C [6]: 9.18%
viability, T/C [7]: 23.1%
viability, T/C [8]: 16.2%
viability, T/C [9]: 14.3%
viability, T/C [10]: 10.2%
viability, T/C [11]: 12.1%
viability, T/C [12]: 10.1%
viability, T/C [13]: 23.6%
viability, T/C [14]: 18%
viability, T/C [15]: 13.9%
viability, T/C [16]: 12.5%
viability, T/C [17]: 11.2%
viability, T/C [18]: 10.7%
viability, T/C [19]: 21.2%
viability, T/C [20]: 16.5%
viability, T/C [21]: 15%
viability, T/C [22]: 14.2%
viability, T/C [23]: 13.2%
viability, T/C [24]: 10.7%
viability, T/C [25]: 19.6%
viability, T/C [26]: 18.2%
viability, T/C [27]: 17.2%
viability, T/C [28]: 14.3%
viability, T/C [29]: 15.7%
viability, T/C [30]: 14.3%
viability, T/C [31]: 18.1%
viability, T/C [32]: 18.5%
viability, T/C [33]: 17.8%
viability, T/C [34]: 15.3%
viability, T/C [35]: 15.2%
viability, T/C [36]: 15.3%

COc1cccc2c1C(=O)c1c(O)c3c(c(O)c1C2=O)CC(O)(C(=O)CO)CC3OC1CC(N)C(O)C(C)O1 (stereo not given) + Cc1cnc(CNC(=O)c2c(=O)c3ccc(N4CCCN(C)CC4)nc3n3c2sc2ccccc23)cn1
IC50 (second compound 0.0316 µM): < 31.6 nM
IC50 (second compound 0.1 µM): < 31.6 nM
IC50 (second compound 0.316 µM): < 31.6 nM
IC50 (second compound 1 µM): < 31.6 nM
IC50 (second compound 3.16 µM): < 31.6 nM
IC50 (second compound 10 µM): < 31.6 nM
viability, T/C [1]: 22.1%
viability, T/C [2]: 16.6%
viability, T/C [3]: 15.6%
viability, T/C [4]: 8.2%
viability, T/C [5]: 0.23%
viability, T/C [6]: 0.38%
viability, T/C [7]: 19.2%
viability, T/C [8]: 15.4%
viability, T/C [9]: 13.4%
viability, T/C [10]: 7.3%
viability, T/C [11]: 0.09%
viability, T/C [12]: 0.33%
viability, T/C [13]: 19%
viability, T/C [14]: 16.6%
viability, T/C [15]: 13.1%
viability, T/C [16]: 7.79%
viability, T/C [17]: 0.05%
viability, T/C [18]: 0.28%
viability, T/C [19]: 18.3%
viability, T/C [20]: 15.7%
viability, T/C [21]: 12.5%
viability, T/C [22]: 6.92%
viability, T/C [23]: 0.05%
viability, T/C [24]: 0.3%
viability, T/C [25]: 13.3%
viability, T/C [26]: 17.1%
viability, T/C [27]: 14.2%
viability, T/C [28]: 0.81%
viability, T/C [29]: 0.07%
viability, T/C [30]: 0.15%
viability, T/C [31]: 17.1%
viability, T/C [32]: 15.1%
viability, T/C [33]: 15.2%
viability, T/C [34]: 0.07%
viability, T/C [35]: 0.11%
viability, T/C [36]: 0.15%

Cc1cccc(N(C)C(=O)C2C(O)CCN2c2nc(C)cc(C(F)(F)F)c2C#N)c1 (stereo not given) + Cc1cnc(CNC(=O)c2c(=O)c3ccc(N4CCCN(C)CC4)nc3n3c2sc2ccccc23)cn1
IC50 (second compound 0.0316 µM): < 31.6 nM
IC50 (second compound 0.1 µM): < 31.6 nM
IC50 (second compound 0.316 µM): < 31.6 nM
IC50 (second compound 1 µM): < 31.6 nM
IC50 (second compound 3.16 µM): < 31.6 nM
IC50 (second compound 10 µM): < 31.6 nM
viability, T/C [1]: 52.7%
viability, T/C [2]: 43.5%
viability, T/C [3]: 35%
viability, T/C [4]: 39.7%
viability, T/C [5]: 40.5%
viability, T/C [6]: 43.9%
viability, T/C [7]: 29.2%
viability, T/C [8]: 22.6%
viability, T/C [9]: 25.3%
viability, T/C [10]: 23.2%
viability, T/C [11]: 25.7%
viability, T/C [12]: 24.6%
viability, T/C [13]: 21.8%
viability, T/C [14]: 18.1%
viability, T/C [15]: 21.6%
viability, T/C [16]: 21.6%
viability, T/C [17]: 24.2%
viability, T/C [18]: 22.7%
viability, T/C [19]: 19.1%
viability, T/C [20]: 19.7%
viability, T/C [21]: 19.7%
viability, T/C [22]: 19.2%
viability, T/C [23]: 20.8%
viability, T/C [24]: 25.2%
viability, T/C [25]: 12.5%
viability, T/C [26]: 19.6%
viability, T/C [27]: 19.4%
viability, T/C [28]: 21%
viability, T/C [29]: 22.4%
viability, T/C [30]: 20.7%
viability, T/C [31]: 22.3%
viability, T/C [32]: 17.8%
viability, T/C [33]: 21%
viability, T/C [34]: 17.9%
viability, T/C [35]: 22.9%
viability, T/C [36]: 20.8%

Nc1ccn(C2OC(CO)C(O)C2(F)F)c(=O)n1 (stereo not given) + Cc1cnc(CNC(=O)c2c(=O)c3ccc(N4CCCN(C)CC4)nc3n3c2sc2ccccc23)cn1
IC50 (second compound 0.0316 µM): < 31.6 nM
IC50 (second compound 0.1 µM): < 31.6 nM
IC50 (second compound 0.316 µM): < 31.6 nM
IC50 (second compound 1 µM): < 31.6 nM
IC50 (second compound 3.16 µM): < 31.6 nM
IC50 (second compound 10 µM): < 31.6 nM
viability, T/C [1]: 15.9%
viability, T/C [2]: 13.3%
viability, T/C [3]: 15%
viability, T/C [4]: 12.4%
viability, T/C [5]: 13.6%
viability, T/C [6]: 12.1%
viability, T/C [7]: 17.9%
viability, T/C [8]: 13.8%
viability, T/C [9]: 16.3%
viability, T/C [10]: 13.3%
viability, T/C [11]: 16.2%
viability, T/C [12]: 14.6%
viability, T/C [13]: 17.6%
viability, T/C [14]: 15.1%
viability, T/C [15]: 16.5%
viability, T/C [16]: 15.2%
viability, T/C [17]: 16.3%
viability, T/C [18]: 13.9%
viability, T/C [19]: 14.7%
viability, T/C [20]: 14.8%
viability, T/C [21]: 16.6%
viability, T/C [22]: 17.5%
viability, T/C [23]: 16.6%
viability, T/C [24]: 15.3%
viability, T/C [25]: 15.4%
viability, T/C [26]: 16.5%
viability, T/C [27]: 17.9%
viability, T/C [28]: 17.7%
viability, T/C [29]: 17.6%
viability, T/C [30]: 12.7%
viability, T/C [31]: 18.2%
viability, T/C [32]: 13.8%
viability, T/C [33]: 18.1%
viability, T/C [34]: 16.4%
viability, T/C [35]: 16.3%
viability, T/C [36]: 13.5%

O=c1[nH]cc(F)c(=O)[nH]1 + Cc1cnc(CNC(=O)c2c(=O)c3ccc(N4CCCN(C)CC4)nc3n3c2sc2ccccc23)cn1
IC50 (second compound 0.0316 µM): < 31.6 nM
IC50 (second compound 0.1 µM): < 31.6 nM
IC50 (second compound 0.316 µM): < 31.6 nM
IC50 (second compound 1 µM): < 31.6 nM
IC50 (second compound 3.16 µM): < 31.6 nM
IC50 (second compound 10 µM): < 31.6 nM
viability, T/C [1]: 47.8%
viability, T/C [2]: 45.1%
viability, T/C [3]: 49.7%
viability, T/C [4]: 39.9%
viability, T/C [5]: 36.7%
viability, T/C [6]: 21.3%
viability, T/C [7]: 28.9%
viability, T/C [8]: 26.9%
viability, T/C [9]: 27.6%
viability, T/C [10]: 25.9%
viability, T/C [11]: 25.5%
viability, T/C [12]: 18.4%
viability, T/C [13]: 24.2%
viability, T/C [14]: 23.3%
viability, T/C [15]: 17.6%
viability, T/C [16]: 21.9%
viability, T/C [17]: 22.2%
viability, T/C [18]: 16.6%
viability, T/C [19]: 21.3%
viability, T/C [20]: 21.1%
viability, T/C [21]: 19.7%
viability, T/C [22]: 23%
viability, T/C [23]: 21.1%
viability, T/C [24]: 20.1%
viability, T/C [25]: 20%
viability, T/C [26]: 19.5%
viability, T/C [27]: 21.8%
viability, T/C [28]: 24.1%
viability, T/C [29]: 21%
viability, T/C [30]: 22%
viability, T/C [31]: 17.7%
viability, T/C [32]: 17.9%
viability, T/C [33]: 18%
viability, T/C [34]: 18.7%
viability, T/C [35]: 20.4%
viability, T/C [36]: 20.1%
